Measurements as given in patent US6759234B1, “Compositions and methods for administering to humans, peptides capable of down regulating an antigen specific immune response” (Immulogic Pharmaceutical Corporation, priority 1994, dated 2004).
Ends that are not written are not given here.

Tested on: IgG and IgE antibodies to Fel d I, peptide X and peptide Y
Experiment: Protocol P92-01 Phase I antibody studies and skin testing with the peptides (antigenicity)
Type: in vivo, human cat-allergic subjects
Conditions: Week 8
Procedure: This Phase I, open-label, dose-escalating safety study was conducted to determine the safety of the administration of the peptide X (SEQ ID NO 1) and peptide Y (SEQ ID NO 2). The antigenicity of the components was also evaluated, as was the activity of the peptides in altering skin test sensitivity.
Safety was assessed by evaluations of clinical laboratory parameters, physical examination, antibody studies and adverse experiences. Activity was assessed by analysis of skin testing. Prick and intradermal skin testing with both affinity purified native Fel d I and the peptides were performed one week prior to, and two and six weeks following the treatment period. Sixteen patients were treated with peptides X and Y during the study. […] Adverse events recorded with the trial were typical of those seen in open label allergy studies. Patients were all cat allergic individuals in this trial and tolerated dose orders of magnitude higher than can be achieved with conventional immunotherapy.

Sequence | skin test reaction to the peptide in a single patient
KALPVVLENARILKNCVDAKMTEEDKE [peptide Y] | delayed local reaction
KRDVDLFLTGTPDEYVEQVAQYKALPV [peptide X] | substantial skin test reaction
